Laboratory results as given in patent publication US9492471B2, “Methods of treating a disease or disorder associated with Bruton'S Tyrosine Kinase” (Celgene Avilomics Research, Inc., priority 2013, dated 2016).
Where two headings read alike, the source gives them in different places.

Experiments:
Experiment in all cases: HotSpot kinase profiling
Format in all cases: biochemical
DAPK2 = target: T1, DAPK2 (Homo sapiens, UniProt Q9UIK4)
T1 construct: purchased Reaction Biology Corp
Outline: (§1)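 Percent inhibition, averaged when run more than once and referenced to a DMSO negative control, came from a radioactive filter-binding readout on P81 paper. Reactions of kinase with freshly made substrate and cofactors ran for 2 h at room temperature.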

CDK1/cyclin E = target: T2, CDK1/cyclin E (Homo sapiens, UniProt P06493)
T2 construct: purchased Reaction Biology Corp
Outline: as §1

P38g = target: T3, P38g (Homo sapiens, UniProt P53778)
T3 construct: purchased Reaction Biology Corp
T3 sequence (P53778 1-367): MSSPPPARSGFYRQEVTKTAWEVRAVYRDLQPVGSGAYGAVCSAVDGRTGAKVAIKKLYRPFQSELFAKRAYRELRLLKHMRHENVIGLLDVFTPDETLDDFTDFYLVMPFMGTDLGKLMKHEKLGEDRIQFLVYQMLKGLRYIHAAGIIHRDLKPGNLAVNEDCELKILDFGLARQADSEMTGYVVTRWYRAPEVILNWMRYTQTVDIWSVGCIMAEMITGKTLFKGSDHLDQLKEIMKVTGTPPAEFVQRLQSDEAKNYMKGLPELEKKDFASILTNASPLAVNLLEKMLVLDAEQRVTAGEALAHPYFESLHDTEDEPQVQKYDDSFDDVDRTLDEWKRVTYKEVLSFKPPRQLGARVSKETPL
Outline: as §1

BMPR2 = target: T4, BMPR2 (Homo sapiens, UniProt Q13873)
T4 construct: purchased Reaction Biology Corp
T4 sequence (Q13873 27-1038): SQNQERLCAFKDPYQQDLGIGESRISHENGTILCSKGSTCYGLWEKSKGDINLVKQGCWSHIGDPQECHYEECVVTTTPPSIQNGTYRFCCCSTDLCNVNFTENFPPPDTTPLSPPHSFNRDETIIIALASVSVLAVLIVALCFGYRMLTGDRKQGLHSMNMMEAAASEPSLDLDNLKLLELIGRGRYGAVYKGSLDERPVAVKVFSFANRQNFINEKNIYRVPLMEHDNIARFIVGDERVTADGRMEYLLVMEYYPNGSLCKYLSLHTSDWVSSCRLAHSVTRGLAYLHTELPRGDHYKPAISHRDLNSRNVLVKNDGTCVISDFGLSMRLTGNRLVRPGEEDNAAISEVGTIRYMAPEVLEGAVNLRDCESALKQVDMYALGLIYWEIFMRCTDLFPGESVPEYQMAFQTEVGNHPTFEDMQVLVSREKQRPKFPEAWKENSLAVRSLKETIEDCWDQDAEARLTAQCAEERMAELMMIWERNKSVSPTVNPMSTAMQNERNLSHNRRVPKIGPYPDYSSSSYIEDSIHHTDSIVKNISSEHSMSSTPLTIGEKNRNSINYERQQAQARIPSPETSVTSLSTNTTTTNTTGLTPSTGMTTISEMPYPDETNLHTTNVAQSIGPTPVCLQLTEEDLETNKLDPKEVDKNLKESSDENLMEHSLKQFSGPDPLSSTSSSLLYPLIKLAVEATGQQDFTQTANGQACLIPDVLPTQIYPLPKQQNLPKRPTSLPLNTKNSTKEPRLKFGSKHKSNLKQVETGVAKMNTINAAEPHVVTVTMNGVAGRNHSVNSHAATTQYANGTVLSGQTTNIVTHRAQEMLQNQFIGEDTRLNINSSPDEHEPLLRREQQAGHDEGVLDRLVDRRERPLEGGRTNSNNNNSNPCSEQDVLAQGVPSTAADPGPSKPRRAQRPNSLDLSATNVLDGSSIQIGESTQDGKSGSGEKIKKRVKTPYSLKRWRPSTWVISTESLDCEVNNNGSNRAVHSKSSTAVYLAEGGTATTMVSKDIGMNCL
Outline: as §1

TSSK3/STK22C = target: T5, TSSK3/STK22C (Homo sapiens, UniProt Q96PN8)
T5 construct: purchased Reaction Biology Corp
T5 sequence (Q96PN8 1-268): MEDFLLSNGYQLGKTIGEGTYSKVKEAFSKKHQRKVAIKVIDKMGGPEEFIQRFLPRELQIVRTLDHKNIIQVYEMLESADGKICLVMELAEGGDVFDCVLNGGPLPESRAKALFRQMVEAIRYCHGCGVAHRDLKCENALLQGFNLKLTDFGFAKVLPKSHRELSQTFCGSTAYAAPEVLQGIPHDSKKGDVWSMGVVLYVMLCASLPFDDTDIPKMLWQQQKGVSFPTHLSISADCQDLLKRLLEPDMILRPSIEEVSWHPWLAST
Outline: as §1

JNK3 = target: T6, JNK3 (Homo sapiens, UniProt P53779)
T6 construct: purchased Reaction Biology Corp
Outline: as §1

ALK = target: T7, ALK (Homo sapiens, UniProt Q9UM73)
T7 construct: purchased Reaction Biology Corp
Outline: as §1

FRK/PTK5 = target: T8, FRK/PTK5 (Homo sapiens, UniProt P42685)
T8 construct: purchased Reaction Biology Corp
Outline: as §1

LYN = target: T9, LYN (Homo sapiens, UniProt P07948)
T9 construct: purchased Reaction Biology Corp
Outline: as §1

ALK2/ACVR1 = target: T10, ALK2/ACVR1 (Homo sapiens, UniProt Q04771)
T10 construct: purchased Reaction Biology Corp
Outline: as §1

[1] = read-out: % Enzyme Activity (relative to DMSO controls) Run 1
[2] = read-out: % Enzyme Activity (relative to DMSO controls) Run 2

T6 sequence (P53779 whole entry): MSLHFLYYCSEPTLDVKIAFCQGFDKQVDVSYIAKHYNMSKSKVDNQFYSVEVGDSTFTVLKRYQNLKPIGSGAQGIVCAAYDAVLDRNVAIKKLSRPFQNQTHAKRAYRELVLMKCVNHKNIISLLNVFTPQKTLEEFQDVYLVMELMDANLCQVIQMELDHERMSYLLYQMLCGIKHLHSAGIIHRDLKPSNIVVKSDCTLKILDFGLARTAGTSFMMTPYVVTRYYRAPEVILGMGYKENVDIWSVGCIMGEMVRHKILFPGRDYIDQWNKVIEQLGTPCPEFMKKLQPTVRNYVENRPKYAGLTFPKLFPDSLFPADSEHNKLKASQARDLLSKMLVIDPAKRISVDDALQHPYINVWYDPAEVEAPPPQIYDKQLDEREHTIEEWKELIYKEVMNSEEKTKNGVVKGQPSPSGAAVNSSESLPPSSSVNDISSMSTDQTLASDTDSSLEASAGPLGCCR
T7 sequence (Q9UM73 19-1620): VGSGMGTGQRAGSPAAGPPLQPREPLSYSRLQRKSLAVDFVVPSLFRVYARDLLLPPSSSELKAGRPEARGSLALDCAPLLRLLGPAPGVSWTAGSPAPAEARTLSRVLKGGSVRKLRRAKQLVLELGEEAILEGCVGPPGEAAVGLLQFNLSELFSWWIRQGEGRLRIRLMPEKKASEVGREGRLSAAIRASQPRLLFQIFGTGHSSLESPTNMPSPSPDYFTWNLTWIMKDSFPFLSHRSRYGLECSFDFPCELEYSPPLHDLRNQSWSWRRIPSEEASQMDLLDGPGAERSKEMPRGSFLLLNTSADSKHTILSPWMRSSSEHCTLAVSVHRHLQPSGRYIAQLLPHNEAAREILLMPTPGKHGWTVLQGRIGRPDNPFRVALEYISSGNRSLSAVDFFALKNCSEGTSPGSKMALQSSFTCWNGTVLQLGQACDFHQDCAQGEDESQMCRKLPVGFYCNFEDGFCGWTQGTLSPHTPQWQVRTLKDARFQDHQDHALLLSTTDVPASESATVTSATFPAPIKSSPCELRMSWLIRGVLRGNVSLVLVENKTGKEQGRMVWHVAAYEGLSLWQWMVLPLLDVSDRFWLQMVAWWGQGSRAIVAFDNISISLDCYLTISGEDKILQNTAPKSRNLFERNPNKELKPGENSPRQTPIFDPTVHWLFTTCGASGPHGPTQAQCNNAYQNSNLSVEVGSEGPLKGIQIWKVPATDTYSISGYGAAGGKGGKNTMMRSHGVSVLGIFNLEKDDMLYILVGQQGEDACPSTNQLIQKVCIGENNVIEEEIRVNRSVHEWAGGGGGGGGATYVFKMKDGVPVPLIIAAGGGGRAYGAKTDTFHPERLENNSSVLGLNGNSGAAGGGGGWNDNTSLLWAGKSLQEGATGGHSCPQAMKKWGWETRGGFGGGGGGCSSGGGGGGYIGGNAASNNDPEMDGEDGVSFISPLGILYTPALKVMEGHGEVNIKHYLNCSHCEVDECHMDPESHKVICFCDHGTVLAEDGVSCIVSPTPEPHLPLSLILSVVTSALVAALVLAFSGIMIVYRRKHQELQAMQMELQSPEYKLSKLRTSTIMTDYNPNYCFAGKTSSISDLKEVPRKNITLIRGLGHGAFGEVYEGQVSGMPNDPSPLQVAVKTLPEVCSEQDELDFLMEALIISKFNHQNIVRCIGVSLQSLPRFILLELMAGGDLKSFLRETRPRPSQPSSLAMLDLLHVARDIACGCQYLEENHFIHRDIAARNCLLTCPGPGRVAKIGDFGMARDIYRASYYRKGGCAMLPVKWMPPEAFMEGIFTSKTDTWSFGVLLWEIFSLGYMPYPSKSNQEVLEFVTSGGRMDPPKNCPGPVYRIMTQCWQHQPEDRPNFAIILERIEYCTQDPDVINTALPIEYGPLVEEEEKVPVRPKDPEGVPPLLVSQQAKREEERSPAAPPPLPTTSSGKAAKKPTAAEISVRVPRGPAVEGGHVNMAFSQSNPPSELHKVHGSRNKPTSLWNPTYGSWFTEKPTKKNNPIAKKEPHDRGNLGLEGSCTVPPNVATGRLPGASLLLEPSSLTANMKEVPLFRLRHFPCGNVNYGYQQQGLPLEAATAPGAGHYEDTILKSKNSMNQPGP
T2 sequence (P06493 whole entry): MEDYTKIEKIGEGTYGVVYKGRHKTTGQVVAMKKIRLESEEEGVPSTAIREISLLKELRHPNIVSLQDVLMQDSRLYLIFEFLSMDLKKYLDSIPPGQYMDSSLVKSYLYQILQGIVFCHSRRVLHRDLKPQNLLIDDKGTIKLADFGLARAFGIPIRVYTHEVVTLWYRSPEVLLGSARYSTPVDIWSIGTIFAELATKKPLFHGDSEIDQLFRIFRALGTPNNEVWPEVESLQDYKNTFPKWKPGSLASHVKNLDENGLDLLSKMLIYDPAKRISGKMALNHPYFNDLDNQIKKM
T2 sequence (P24864 whole entry partner): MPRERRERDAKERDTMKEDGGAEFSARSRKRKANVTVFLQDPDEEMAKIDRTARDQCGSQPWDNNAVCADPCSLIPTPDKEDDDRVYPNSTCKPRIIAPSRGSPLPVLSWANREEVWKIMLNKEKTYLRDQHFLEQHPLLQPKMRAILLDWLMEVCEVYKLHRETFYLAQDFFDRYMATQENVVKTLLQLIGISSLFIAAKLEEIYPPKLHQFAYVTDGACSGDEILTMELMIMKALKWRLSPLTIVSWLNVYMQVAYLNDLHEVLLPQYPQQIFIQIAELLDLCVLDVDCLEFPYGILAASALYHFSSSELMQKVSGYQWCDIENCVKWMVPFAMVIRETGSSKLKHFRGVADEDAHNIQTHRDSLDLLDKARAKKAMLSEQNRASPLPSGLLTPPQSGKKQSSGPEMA
T8 sequence (P42685 whole entry): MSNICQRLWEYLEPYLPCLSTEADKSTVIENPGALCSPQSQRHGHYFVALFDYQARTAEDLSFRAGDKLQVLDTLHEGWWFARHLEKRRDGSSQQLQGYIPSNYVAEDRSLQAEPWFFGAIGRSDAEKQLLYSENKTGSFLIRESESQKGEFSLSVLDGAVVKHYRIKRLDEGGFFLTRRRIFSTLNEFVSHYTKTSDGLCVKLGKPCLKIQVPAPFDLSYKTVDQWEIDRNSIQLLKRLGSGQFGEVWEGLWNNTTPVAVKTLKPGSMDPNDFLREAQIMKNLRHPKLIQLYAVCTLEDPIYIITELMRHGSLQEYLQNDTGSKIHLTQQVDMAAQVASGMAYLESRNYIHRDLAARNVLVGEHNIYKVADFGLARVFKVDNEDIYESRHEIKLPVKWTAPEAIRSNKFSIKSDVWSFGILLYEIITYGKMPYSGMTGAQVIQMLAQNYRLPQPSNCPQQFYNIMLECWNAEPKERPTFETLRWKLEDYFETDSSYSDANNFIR
T9 sequence (P07948 whole entry): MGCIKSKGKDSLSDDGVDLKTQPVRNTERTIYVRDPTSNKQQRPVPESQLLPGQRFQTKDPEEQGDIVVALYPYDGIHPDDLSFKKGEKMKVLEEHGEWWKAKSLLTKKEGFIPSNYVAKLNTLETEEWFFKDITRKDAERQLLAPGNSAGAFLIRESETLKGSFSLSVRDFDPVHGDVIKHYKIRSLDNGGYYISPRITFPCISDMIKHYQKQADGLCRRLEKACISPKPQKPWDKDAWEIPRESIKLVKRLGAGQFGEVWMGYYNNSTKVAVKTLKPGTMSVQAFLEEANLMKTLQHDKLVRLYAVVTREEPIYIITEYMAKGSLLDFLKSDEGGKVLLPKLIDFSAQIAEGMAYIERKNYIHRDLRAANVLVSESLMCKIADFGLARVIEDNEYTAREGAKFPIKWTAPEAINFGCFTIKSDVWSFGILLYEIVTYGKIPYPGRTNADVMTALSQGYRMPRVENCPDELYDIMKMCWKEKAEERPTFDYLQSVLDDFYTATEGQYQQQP
T1 sequence (Q9UIK4 whole entry): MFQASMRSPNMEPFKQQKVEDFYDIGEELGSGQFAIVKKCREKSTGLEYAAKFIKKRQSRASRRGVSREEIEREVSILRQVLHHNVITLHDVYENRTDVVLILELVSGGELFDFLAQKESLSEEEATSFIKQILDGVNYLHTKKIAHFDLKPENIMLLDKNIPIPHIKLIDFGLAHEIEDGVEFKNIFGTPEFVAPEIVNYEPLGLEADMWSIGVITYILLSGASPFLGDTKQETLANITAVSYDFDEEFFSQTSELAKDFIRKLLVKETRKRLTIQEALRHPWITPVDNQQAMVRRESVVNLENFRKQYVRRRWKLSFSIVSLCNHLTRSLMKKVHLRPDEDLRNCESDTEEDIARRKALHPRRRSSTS
T10 sequence (Q04771 21-509): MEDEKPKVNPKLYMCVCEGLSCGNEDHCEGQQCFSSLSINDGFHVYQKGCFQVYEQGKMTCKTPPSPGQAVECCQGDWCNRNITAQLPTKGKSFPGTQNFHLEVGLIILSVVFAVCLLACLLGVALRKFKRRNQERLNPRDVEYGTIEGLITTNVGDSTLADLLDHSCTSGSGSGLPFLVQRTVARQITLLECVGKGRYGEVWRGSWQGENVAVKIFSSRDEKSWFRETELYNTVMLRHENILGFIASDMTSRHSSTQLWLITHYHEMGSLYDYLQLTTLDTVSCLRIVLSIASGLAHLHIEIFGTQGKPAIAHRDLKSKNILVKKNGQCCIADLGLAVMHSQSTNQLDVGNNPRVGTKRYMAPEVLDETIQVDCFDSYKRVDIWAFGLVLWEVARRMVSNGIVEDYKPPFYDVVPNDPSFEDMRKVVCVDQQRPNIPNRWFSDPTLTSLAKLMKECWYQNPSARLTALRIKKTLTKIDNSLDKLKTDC

## C=CC(=O)Nc1cccc(Nc2nc(Nc3ccc(OCCOC)c(F)c3)ncc2F)c1 [Compound 2]
DAPK2
  inhibition at 3 µM: -9.89%
DAPK2; [1]
  remaining activity at 3 µM: 108%
DAPK2; [2]
  remaining activity at 3 µM: 112%
CDK1/cyclin E
  inhibition at 3 µM: -1.3%
CDK1/cyclin E; [1]
  remaining activity at 3 µM: 100%
CDK1/cyclin E; [2]
  remaining activity at 3 µM: 102%
P38g
  inhibition at 3 µM: -5.53%
P38g; [1]
  remaining activity at 3 µM: 105%
P38g; [2]
  remaining activity at 3 µM: 106%
BMPR2
  inhibition at 3 µM: 16.2%
BMPR2; [1]
  remaining activity at 3 µM: 83.8%
BMPR2; [2]
  remaining activity at 3 µM: 83.8%
TSSK3/STK22C
  inhibition at 3 µM: -32.6%
TSSK3/STK22C; [1]
  remaining activity at 3 µM: 133%
TSSK3/STK22C; [2]
  remaining activity at 3 µM: 133%
JNK3
  inhibition at 3 µM: -12.8%
JNK3; [1]
  remaining activity at 3 µM: 110%
JNK3; [2]
  remaining activity at 3 µM: 116%
ALK
  inhibition at 3 µM: 16.9%
ALK; [1]
  remaining activity at 3 µM: 82.5%
ALK; [2]
  remaining activity at 3 µM: 83.6%
FRK/PTK5
  inhibition at 3 µM: 0.75%
FRK/PTK5; [1]
  remaining activity at 3 µM: 101%
FRK/PTK5; [2]
  remaining activity at 3 µM: 98%
LYN
  inhibition at 3 µM: 27.5%
LYN; [1]
  remaining activity at 3 µM: 71.7%
LYN; [2]
  remaining activity at 3 µM: 73.2%
ALK2/ACVR1; [1]
  remaining activity at 3 µM: 385%
ALK2/ACVR1; [2]
  remaining activity at 3 µM: 385%
